Structures are written as SMILES.

The test system of series [1] is SK-OV-3 cells. Nature of the series: Cell morphology, acridine orange staining. Format: cell-based, human. The following applies: SK-OV-3, 24 h, 30 µM. Here is the method:
Acridine orange staining was preceded by preparation of a cell culture at a density 1 × 10^5 per well in a 24-well glass bottom plate (NEST Biotechnology, Wuxi, China). Cells were cultured for 24 h in a standard medium (1 mL), after which the medium was replaced with a new medium containing 10 µM and 30 µM of the test compounds or with 0.2% DMSO (control). Cells were incubated in the presence of test substances for 24 h in a CO2 incubator. To each of the test wells, acridine orange dissolved in PBS (the final concentration was 1 µg/mL) was added and incubated for 5 min in a CO2 incubator. After incubation, the cells were observed under a Nikon Eclipse TS-100F microscope (Nikon Instruments Europe, Amstelveen, The Netherlands). The photographs were taken with a Nikon DS-Fi1 digital camera, supported by the NIS-Elements application.

For another series, the system named is C32 cell line. Further details: method as in PMID 33572631. The following applies: cited from earlier work.
For series [2], the system named is SK-OV-3 cells. Nature of the series: LDH release assay, SK-OV-3. Format: cell-based, human. The following applies: SK-OV-3, 24 h, 10 μM and 30 μM. Here is the method:
In order to evaluate the cytotoxic effect, the release of LDH into the culture medium using the In Vitro Toxicology Assay Kit, Lactic Dehydrogenase Based (TOX7; Sigma Aldrich) was assessed. SK-OV-3 and OVCAR-3 cells were plated and cultured in 96-well plates (Greiner Bio-One) at the initial density of 5 × 10^3 cells per well in 100 µL of culture medium. The density of the cells was determined in the same manner as in the SRB assay. After 24 h, the media were replaced with the working solutions, which contained appropriate test compounds at concentrations of 3 μM, 10 μM, 30 μM, and control medium (0.2% DMSO). Cells were exposed to the test substances for 24 h. The background control comprised wells without cells with only control medium. To determine the maximal LDH release (high control), half of the control cultures were treated with lysis buffer. Wells with untreated cells were used as the low control of the assay. LDH activity in media was assessed according to the manufacturer’s protocol. The absorbance was measured at wavelengths of 490 nm and 690 nm (background), and the percentage of released enzyme was calculated for cells growing in the presence of compounds according to the formula:Cytotoxicity [%] = [(AT − AL)/(AH − AL)] × 100 where AT is the absorbance of treated wells; AL is low control; and AH is high control (maximal LDH release).
Cytotoxicity was expressed as a percentage of the released LDH calculated according to the difference between the absorbance of the treated and low control wells divided by the difference between the absorbance of the high control and low control wells.
(In general: LDH in the medium is a marker of cell lysis.)

A further series has as its system T47D cell line. Also on record: method as in PMID 33572631. As to conditions: cited from earlier work.
The subject of another series is SNB-19 cell line. Also on record: method as in PMID 33572631. The following applies: cited from earlier work.

As to `C=C(C)[C@@H]1CC[C@]2(CO)CC[C@]3(C)[C@H](CC[C@@H]4[C@@]5(C)CC[C@H](O)C(C)(C)[C@@H]5CC[C@]43C)[C@@H]12` [Compound 1, lup-20(29)-ene-3β,28-diol, reference compound], the “cell morphology (acridine orange)” value in the series on SK-OV-3 cells [1] is listed as “typical apoptotic morphology”.

Regarding `C#CC(=O)OC[C@]12CC[C@@H](/C(C)=C/P(=O)(OCC)OCC)C1C1CCC3[C@@]4(C)CC[C@H](O)C(C)(C)C4CC[C@@]3(C)[C@]1(C)CC2` (some centres unmarked) [Compound 6, E-29-diethoxyphosphoryl-28-O-propynoylbetulin], the values for the IC50 in the series with C32 cell line, in the series with T47D cell line and in the series on SNB-19 cell line were 600 nM, 700 nM and 430 nM, respectively. In addition, the “cytotoxicity (released LDH)” value with SK-OV-3 cells [2] is on record as “most cytotoxic agent”.

Source of the values: publication PMC10671498, “Antiproliferative and Cytotoxic Properties of Propynoyl Betulin Derivatives against Human Ovarian Cancer Cells: In Vitro Studies” (International Journal of Molecular Sciences, 2023).
